Key:
mouse RetSat [1] = target: T1, mouse RetSat (Mus musculus, UniProt Q64FW2); test: RetSat saturase activity in Tet-induced HEKK-RetSat cells; type: cell-based; settings: 40 μM substrate, overnight incubation
T1 construct: expressed in transfected cells
T1 sequence (Q64FW2 26-609): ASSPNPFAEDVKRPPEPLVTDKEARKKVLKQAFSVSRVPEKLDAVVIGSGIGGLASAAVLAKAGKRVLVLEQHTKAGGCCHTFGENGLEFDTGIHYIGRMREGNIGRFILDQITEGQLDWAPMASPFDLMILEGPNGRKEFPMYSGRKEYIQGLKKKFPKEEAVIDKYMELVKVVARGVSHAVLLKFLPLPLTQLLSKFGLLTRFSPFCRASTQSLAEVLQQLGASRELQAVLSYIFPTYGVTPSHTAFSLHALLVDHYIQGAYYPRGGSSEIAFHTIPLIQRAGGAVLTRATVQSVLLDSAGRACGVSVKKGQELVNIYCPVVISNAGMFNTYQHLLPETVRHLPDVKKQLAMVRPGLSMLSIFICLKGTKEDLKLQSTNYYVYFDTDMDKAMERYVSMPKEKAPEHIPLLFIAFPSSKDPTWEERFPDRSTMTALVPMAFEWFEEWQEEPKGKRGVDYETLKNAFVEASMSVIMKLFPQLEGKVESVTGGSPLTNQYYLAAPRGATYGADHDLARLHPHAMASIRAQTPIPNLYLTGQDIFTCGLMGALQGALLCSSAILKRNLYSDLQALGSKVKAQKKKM
Procedure: Enzyme assays of RetSat and CRTISO-catalyzed reactions. For enzyme assay, cells were seeded in six-well plates and expression of RetSat or CRTISO was induced with 1 μg/ml tetracycline 48 hr prior to analysis. Substrate preparation and addition were conducted under dim red light. Retinoid substrates were purified by HPLC as described above and dissolved in N,N-dimethylformamide (DMF) to a final concentration of 4 mM. Organic extract of tangerine tomatoes was dried under a stream of argon and resuspended in DMF. The substrates were diluted in 300 μl complete media (tetracycline 1 μg/ml) to a 40 μM final concentration, overlayed on cells, and incubated overnight in the dark at 37° C. in 5% CO2 and 100% humidity. Media and cells were collected by scraping, mixed with an equal volume of methanol. For retinol and dihydroretinol analysis the methanol:water mixture was extracted with two volumes of hexane, then the organic phase was dried, resuspended in hexane, and analyzed by normal-phase HPLC. […] For carotenoid analysis the organic phase was dried and resuspended in ethanol/tetrahydrofuran (9:1) and examined by reverse-phase HPLC System I. For retinoic acid analysis the 1:1 methanol:water mixture was acidified with 0.1 volumes of 12N HCl and extracted with 1 volume of chlorofom, dried and resuspended in ethanol and examined by reverse-phase HPLC System II.

tomato CRTISO = target: T2, tomato CRTISO (Solanum lycopersicum, UniProt Q8S4R4); test: CRTISO activity in transfected HEKK cells; type: cell-based; settings: CRTISO-expressing cells, overnight, in the dark
T2 construct: expressed in transfected cells
T2 sequence (Q8S4R4 with tags, fused parts or gaps): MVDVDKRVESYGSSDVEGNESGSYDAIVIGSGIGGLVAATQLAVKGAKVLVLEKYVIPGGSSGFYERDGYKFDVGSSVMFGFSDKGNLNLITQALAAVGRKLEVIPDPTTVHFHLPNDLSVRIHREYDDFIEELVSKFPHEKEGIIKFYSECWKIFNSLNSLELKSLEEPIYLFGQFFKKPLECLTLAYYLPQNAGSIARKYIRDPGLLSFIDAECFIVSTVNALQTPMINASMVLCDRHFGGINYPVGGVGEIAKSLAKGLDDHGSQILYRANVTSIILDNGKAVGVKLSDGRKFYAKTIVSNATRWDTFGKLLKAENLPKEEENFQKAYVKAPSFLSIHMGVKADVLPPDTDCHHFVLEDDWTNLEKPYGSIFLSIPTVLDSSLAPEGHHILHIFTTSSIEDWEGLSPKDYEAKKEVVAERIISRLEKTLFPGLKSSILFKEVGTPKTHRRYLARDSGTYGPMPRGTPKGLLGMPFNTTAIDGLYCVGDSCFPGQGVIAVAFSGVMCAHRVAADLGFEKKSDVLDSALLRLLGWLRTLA
Procedure: 7Z,9Z,9′Z,7′Z-Tetra-cis-tycopene purification and reverse-phase HPLC analysis of carotenoids. Carotenoid extraction and analysis were performed under dim red light. One gram from the fruit of a tangerine tomato was freeze-thawed three times and extracted with 2 ml PBS, 2 ml of ethanol, and 6 ml of hexane with the aid of a douncer. The organic phase was dried and resuspended in ethanol/tetrahydrofuran (9:1), and examined by reverse-phase HPLC System I (Prontosil, 200-3-C30, 3 μm, 4.6 mm×250 mm, Bischoff Chromatography, Leonberg, Germany) with a mobile phase of 75% tert-butyl methyl ether/25% methanol and a flow rate of 1 ml/min. More than 90% of the extract consisted of 7Z,9Z,9′Z,7′Z-tetra-cis-lycopene identified based on its published UV/VIS absorption spectrum in hexane with the following characteristics: shoulder at λ=417 nm, ε=90,000 M^−1cm^−1, λmax=437 nm, ε=105,000 M−1 cm^−1, shoulder at λ=461 nm ε=70,000 M^−1cm^−1. Bradford, Anal Biochem 72:248-254, 1976.
Enzyme assays of RetSat and CRTISO-catalyzed reactions. For enzyme assay, cells were seeded in six-well plates and expression of RetSat or CRTISO was induced with 1 μg/ml tetracycline 48 hr prior to analysis. […] For retinol and dihydroretinol analysis the methanol:water mixture was extracted with two volumes of hexane, then the organic phase was dried, resuspended in hexane, and analyzed by normal-phase HPLC. […]

mouse RetSat [2] = target: T1, mouse RetSat; settings: earlier report, Moise et al. 2004; cited from earlier work

Compound | Saturation by RetSat (substrate activity) (mouse RetSat [1]) | Conversion by CRTISO (substrate activity) (tomato CRTISO) | Saturation by RetSat (mouse RetSat [2])
CC(C)=CCC/C(C)=C/C=C/C(C)=C/C=C/C(C)=C/C=C/C=C(C)/C=C/C=C(C)/C=C/C=C(\C)CCC=C(C)C [7Z,9Z,9′Z,7′Z-tetra-cis-lycopene] | no difference | converted | 
CC1=C(/C=C/C(C)=C\C=C\C(C)=C\C(=O)O)C(C)(C)CCC1 [9-cis-RA, 9-cis-retinoic acid] |  |  | does not saturate
